Measured values published in PubChem BioAssay AID330 (DTP/NCI, 2004).
Several values for one entry are separate records, joined by “and”; a condition that tells them apart may be missing. Equal entries are not always repeated. Inconclusive results and toxic doses are left out. Rule for the calls: active = survival T/C of 150% or more; inactive = T/C below 125% in these data.

System: P388 leukemia ip, CD2F1 mice, survival T/C
Assay: NCI In Vivo Anticancer Drug Screen. Data for tumor model P388 Leukemia (intraperitoneal) in CD2F1 (CDF1) mice
Conditions: endpoint: median survival time, higher = longer survival
Procedure, shortened: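 Mice carrying the transplanted tumor received test compound or vehicle. Survival was recorded in each group, and the value is the treated-group measurement divided by that of the vehicle-treated control group.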

[1] = dose: 1.0 mg/kg/injection, schedule: Q01DX005 (ip), vehicle: saline with Tween-80
[2] = dose: 2.0 mg/kg/injection, schedule: Q01DX005 (ip), vehicle: saline with Tween-80
[3] = dose: 4.0 mg/kg/injection, schedule: Q01DX005 (ip), vehicle: saline with Tween-80
[4] = dose: 8.0 mg/kg/injection, schedule: Q01DX005 (ip), vehicle: saline with Tween-80
[5] = dose: 12.5 mg/kg/injection, schedule: Q01DX009 (ip), vehicle: saline with Tween-80
[6] = dose: 25.0 mg/kg/injection, schedule: Q01DX009 (ip), vehicle: saline with Tween-80
[7] = dose: 50.0 mg/kg/injection, schedule: Q01DX005 (ip), vehicle: saline with Tween-80
[8] = dose: 100.0 mg/kg/injection, schedule: Q01DX005 (ip), vehicle: saline with Tween-80
[9] = dose: 200.0 mg/kg/injection, schedule: Q01DX005 (ip), vehicle: saline with Tween-80
[10] = dose: 50.0 mg/kg/injection, schedule: Q01DX005 (ip), vehicle: Klucel (hydroxypropylcellulose) (HPC)
[11] = dose: 100.0 mg/kg/injection, schedule: Q01DX005 (ip), vehicle: Klucel (hydroxypropylcellulose) (HPC)
[12] = dose: 200.0 mg/kg/injection, schedule: Q01DX005 (ip), vehicle: Klucel (hydroxypropylcellulose) (HPC)
[13] = dose: 60.0 mg/kg/injection, schedule: Q01DX005 (ip), vehicle: Klucel (hydroxypropylcellulose) (HPC)
[14] = dose: 120.0 mg/kg/injection, schedule: Q01DX005 (ip), vehicle: Klucel (hydroxypropylcellulose) (HPC)
[15] = dose: 240.0 mg/kg/injection, schedule: Q01DX005 (ip), vehicle: Klucel (hydroxypropylcellulose) (HPC)
[16] = dose: 50.0 mg/kg/injection, schedule: Q01DX009 (ip), vehicle: saline with Tween-80
[17] = dose: 200.0 mg/kg/injection, schedule: Q01DX009 (ip), vehicle: saline with Tween-80

Measured: T/C

O=[N+]([O-])c1ccc(O)c([N+](=O)[O-])c1
inactive: [1] 96 % of control | [2] 108 % of control | [3] 106 % of control | dose: 6.25 mg/kg/injection, schedule: Q01DX009 (ip), vehicle: saline with Tween-80 100 % of control | [4] 104 % of control | [5] 100 % of control | dose: 16.0 mg/kg/injection, schedule: Q01DX005 (ip), vehicle: saline with Tween-80 103 % of control | [6] 90 % of control | dose: 25.0 mg/kg/injection, schedule: Q04DX003 (ip), vehicle: saline with Tween-80 90 % of control | dose: 32.0 mg/kg/injection, schedule: Q01DX005 (ip), vehicle: saline with Tween-80 102 % of control

CC(=O)N1CCc2cc([N+](=O)[O-])ccc21
inactive: dose: 50.0 mg/kg/injection, schedule: Q01DX009 (ip), vehicle: Klucel (hydroxypropylcellulose) (HPC) 99 % of control | dose: 100.0 mg/kg/injection, schedule: Q01DX009 (ip), vehicle: Klucel (hydroxypropylcellulose) (HPC) 113 % of control | dose: 200.0 mg/kg/injection, schedule: Q01DX009 (ip), vehicle: Klucel (hydroxypropylcellulose) (HPC) 100 % of control | dose: 400.0 mg/kg/injection, schedule: Q01DX009 (ip), vehicle: Klucel (hydroxypropylcellulose) (HPC) 110 % of control

CCOC(=O)CC1(O)CS/C(=C(\C#N)C(=O)OCC)N1c1ccccc1 (stereo not given)
inactive: [7] 96 % of control | [8] 100 % of control | [9] 96 % of control

COc1ccc(OC)c(NC(=O)OCc2ccc3c(c2)OCO3)c1
inactive: dose: 60.0 mg/kg/injection, schedule: Q01DX005 (ip), vehicle: saline with Tween-80 98 % of control | dose: 120.0 mg/kg/injection, schedule: Q01DX005 (ip), vehicle: saline with Tween-80 95 % of control | dose: 240.0 mg/kg/injection, schedule: Q01DX005 (ip), vehicle: saline with Tween-80 93 % of control

CN(C)CCNC(=Cc1ccc2ccccc2[n+]1C)NCCN(C)C
inactive: dose: 30.0 mg/kg/injection, schedule: Q01DX005 (ip), vehicle: saline 97 % of control | dose: 60.0 mg/kg/injection, schedule: Q01DX005 (ip), vehicle: saline 101 % of control

CCOC(=O)OCC1=Nc2cccc3cccc(c23)N1
inactive: [10] 100 % of control | [11] 110 % of control | [12] 108 % of control

COC(=O)C1(C(=O)O)ON1C(C)(C)C (stereo not given)
inactive: [10] 100 % of control | [11] 100 % of control | [12] 99 % of control

CCCCCCCCCCCC[C@@H](O)[C@H]1CC[C@H]([C@H](O)CCCC[C@H](O)CCCCC[C@@H](O)CC2=C[C@H](C)OC2=O)O1
inactive: dose: 0.75 mg/kg/injection, schedule: Q01DX009 (ip), vehicle: other 113 % of control | dose: 1.5 mg/kg/injection, schedule: Q01DX009 (ip), vehicle: other 105 % of control

O=c1c2ccccc2sc2cccc(NCCCN3CCN(CCCNc4cccc5sc6ccccc6c(=O)c45)CC3)c12
inactive: dose: 0.5 mg/kg/injection, schedule: Q01DX005 (ip), vehicle: saline with Tween-80 100 % of control | [1] 99 % of control | [2] 99 % of control | [3] 95 % of control | [4] 88 % of control

BrC1=CC(Br)=C2N=C(N3CCCC3)N=C3N=C(C(Br)(Br)Br)N=C1N32
inactive: dose: 7.5 mg/kg/injection, schedule: Q01DX005 (ip), vehicle: Klucel (hydroxypropylcellulose) (HPC) 94 % of control | dose: 15.0 mg/kg/injection, schedule: Q01DX005 (ip), vehicle: Klucel (hydroxypropylcellulose) (HPC) 92 % of control | dose: 30.0 mg/kg/injection, schedule: Q01DX005 (ip), vehicle: Klucel (hydroxypropylcellulose) (HPC) 86 % of control and 90 % of control | [13] 86 % of control | [14] 88 % of control | [15] 94 % of control

FP1(c2ccccc2)(c2ccccc2)Nc2cc(C(c3ccccc3)(c3ccccc3)c3ccccc3)ccc2O1
inactive: [5] 104 % of control | [6] 98 % of control | [16] 92 % of control | [17] 95 % of control

CCCCCCCCCCNCCSSCc1ccccc1
inactive: dose: 12.5 mg/kg/injection, schedule: Q04DX002 (ip), vehicle: Klucel (hydroxypropylcellulose) (HPC) 100 % of control | dose: 25.0 mg/kg/injection, schedule: Q04DX002 (ip), vehicle: Klucel (hydroxypropylcellulose) (HPC) 100 % of control | dose: 50.0 mg/kg/injection, schedule: Q04DX002 (ip), vehicle: Klucel (hydroxypropylcellulose) (HPC) 109 % of control | dose: 100.0 mg/kg/injection, schedule: Q04DX002 (ip), vehicle: Klucel (hydroxypropylcellulose) (HPC) 105 % of control

N#C/C(=C\c1ccccc1)CN1CCCCC1
inactive: dose: 100.0 mg/kg/injection, schedule: Q01DX001 (ip), vehicle: saline with Tween-80 110 % of control | dose: 200.0 mg/kg/injection, schedule: Q01DX001 (ip), vehicle: saline with Tween-80 122 % of control

C=CCC12CC(C)OC1=Nc1ccccc1NC2=O (stereo not given)
inactive: [7] 98 % of control | [8] 100 % of control | [9] 104 % of control

CC(=O)Nc1ccc2c(=O)n(O)c(=O)[nH]c2c1
inactive: [10] 102 % of control | [11] 103 % of control | [12] 106 % of control

c1ccc2nc3nc4ccccc4nc3nc2c1
inactive: dose: 15.0 mg/kg/injection, schedule: Q01DX009 (ip), vehicle: saline with Tween-80 92 % of control | dose: 30.0 mg/kg/injection, schedule: Q01DX009 (ip), vehicle: saline with Tween-80 114 % of control | dose: 50.0 mg/kg/injection, schedule: Q01DX005 (ip), vehicle: Klucel + Tween-80 90 % of control | [16] 103 % of control | dose: 60.0 mg/kg/injection, schedule: Q01DX009 (ip), vehicle: saline with Tween-80 111 % of control | dose: 100.0 mg/kg/injection, schedule: Q01DX005 (ip), vehicle: Klucel + Tween-80 96 % of control | dose: 100.0 mg/kg/injection, schedule: Q01DX009 (ip), vehicle: saline with Tween-80 113 % of control | dose: 200.0 mg/kg/injection, schedule: Q01DX005 (ip), vehicle: Klucel + Tween-80 93 % of control | [17] 107 % of control

CC(=O)c1c(C)oc(C)c1-c1ccc2c(c1)OCO2
inactive: [13] 108 % of control | [14] 103 % of control | [15] 104 % of control

CCOC(=O)CC1Cc2ccc3ccc(O)cc3c2C1=O (stereo not given)
inactive: dose: 12.5 mg/kg/injection, schedule: Q01DX009 (ip), vehicle: distilled water + Tween-80 94 % of control | dose: 25.0 mg/kg/injection, schedule: Q01DX009 (ip), vehicle: distilled water + Tween-80 95 % of control | dose: 50.0 mg/kg/injection, schedule: Q01DX009 (ip), vehicle: distilled water + Tween-80 92 % of control | dose: 100.0 mg/kg/injection, schedule: Q01DX009 (ip), vehicle: distilled water + Tween-80 86 % of control | dose: 200.0 mg/kg/injection, schedule: Q01DX009 (ip), vehicle: distilled water + Tween-80 92 % of control

COc1cc2c3cc1Oc1c(O)c(OC)cc4c1[C@H](Cc1ccc(O)c(c1)Oc1ccc(cc1)C[C@H]3N(C)CC2)N(C)CC4
inactive: dose: 37.5 mg/kg/injection, schedule: Q01DX009 (ip), vehicle: Klucel (hydroxypropylcellulose) (HPC) 98 % of control
